Laboratory results as given in the NIST ThermoML archive (doi:10.1016/j.jct.2016.09.041).
Values joined by “and” are separate entries in the source; they are usually repeats but may differ in a detail not shown here. Identical values can stand only once.

Experiment: molar heat capacity at constant pressure
Details: 101.33 kPa, Small (less than 1 g) adiabatic calorimetry

N[C@@H](Cc1c[nH]c2ccccc12)C(=O)O [L-tryptophan]
molar heat capacity at constant pressure
Details | Crystal | Crystal 1
5 K | 0.6568 J/K/mol | –
7.14 K | 1.912 J/K/mol | –
7.31 K | 2.029 J/K/mol | –
7.49 K | 2.253 J/K/mol | –
7.66 K | 2.22 J/K/mol | –
7.83 K | 2.345 J/K/mol | –
8.01 K | 2.511 J/K/mol | –
8.17 K | 2.719 J/K/mol | –
8.33 K | 2.893 J/K/mol | –
8.49 K | 3.026 J/K/mol | –
8.64 K | 3.118 J/K/mol | –
8.8 K | 3.193 J/K/mol | –
8.95 K | 3.5 J/K/mol | –
9.1 K | 3.492 J/K/mol | –
9.25 K | 3.783 J/K/mol | –
9.39 K | 4.024 J/K/mol | –
9.54 K | 4.041 J/K/mol | –
9.69 K | 4.141 J/K/mol | –
9.83 K | 4.34 J/K/mol | –
9.98 K | 4.506 J/K/mol | –
10 K | 4.49 J/K/mol | –
10.17 K | 4.656 J/K/mol | –
10.41 K | 4.889 J/K/mol | –
10.66 K | 5.08 J/K/mol | –
10.9 K | 5.363 J/K/mol | –
11.14 K | 5.712 J/K/mol | –
11.39 K | 5.978 J/K/mol | –
11.63 K | 6.153 J/K/mol | –
11.88 K | 6.419 J/K/mol | –
12.12 K | 6.768 J/K/mol | –
12.37 K | 7.009 J/K/mol | –
12.62 K | 7.325 J/K/mol | –
12.87 K | 7.591 J/K/mol | –
13.12 K | 7.874 J/K/mol | –
13.37 K | 8.132 J/K/mol | –
13.62 K | 8.481 J/K/mol | –
13.87 K | 8.697 J/K/mol | –
14.12 K | 8.988 J/K/mol | –
14.37 K | 9.37 J/K/mol | –
14.63 K | 9.612 J/K/mol | –
14.89 K | 9.994 J/K/mol | –
15 K | 10.06 J/K/mol | –
15.14 K | 10.24 J/K/mol | –
15.4 K | 10.54 J/K/mol | –
15.65 K | 10.85 J/K/mol | –
15.91 K | 11.26 J/K/mol | –
16.17 K | 11.59 J/K/mol | –
16.42 K | 11.93 J/K/mol | –
16.68 K | 12.31 J/K/mol | –
16.94 K | 12.6 J/K/mol | –
17.2 K | 12.88 J/K/mol | –
17.46 K | 13.23 J/K/mol | –
17.72 K | 13.64 J/K/mol | –
17.98 K | 13.93 J/K/mol | –
18.24 K | 14.28 J/K/mol | –
18.5 K | 14.56 J/K/mol | –
18.77 K | 14.98 J/K/mol | –
19.04 K | 15.27 J/K/mol | –
19.3 K | 15.67 J/K/mol | –
19.56 K | 16.11 J/K/mol | –
19.82 K | 16.35 J/K/mol | –
20 K | 16.55 J/K/mol | –
20.09 K | 16.75 J/K/mol | –
20.64 K | 17.32 J/K/mol | –
21.4 K | 18.33 J/K/mol | –
22.16 K | 19.27 J/K/mol | –
22.93 K | 20.25 J/K/mol | –
23.7 K | 21.21 J/K/mol | –
24.47 K | 22.27 J/K/mol | –
25 K | 22.95 J/K/mol | –
25.24 K | 23.36 J/K/mol | –
26.01 K | 24.35 J/K/mol | –
26.79 K | 25.26 J/K/mol | –
27.56 K | 26.17 J/K/mol | –
28.34 K | 27.19 J/K/mol | –
29.12 K | 28.15 J/K/mol | –
29.9 K | 29.13 J/K/mol | –
30 K | 29.35 J/K/mol | –
30.69 K | 30.2 J/K/mol | –
31.47 K | 31.22 J/K/mol | –
32.25 K | 32.16 J/K/mol | –
33.04 K | 33.14 J/K/mol | –
33.83 K | 34.04 J/K/mol | –
34.62 K | 34.9 J/K/mol | –
35 K | 35.34 J/K/mol | –
35.41 K | 35.81 J/K/mol | –
36.19 K | 36.73 J/K/mol | –
36.98 K | 37.56 J/K/mol | –
37.77 K | 38.4 J/K/mol | –
38.56 K | 39.29 J/K/mol | –
39.36 K | 40.19 J/K/mol | –
40 K | 40.82 J/K/mol | –
40.15 K | 40.92 J/K/mol | –
40.94 K | 41.77 J/K/mol | –
41.73 K | 42.6 J/K/mol | –
42.53 K | 43.43 J/K/mol | –
43.32 K | 44.32 J/K/mol | –
44.11 K | 45.14 J/K/mol | –
44.91 K | 45.95 J/K/mol | –
45 K | 45.9 J/K/mol | –
45.71 K | 46.69 J/K/mol | –
46.51 K | 47.37 J/K/mol | –
47.31 K | 48.09 J/K/mol | –
48.11 K | 48.71 J/K/mol | –
48.9 K | 49.39 J/K/mol | –
49.7 K | 50.03 J/K/mol | –
50 K | 50.55 J/K/mol | –
50.5 K | 50.81 J/K/mol | –
51.3 K | 51.51 J/K/mol | –
52.1 K | 52.37 J/K/mol | –
52.9 K | 53.35 J/K/mol | –
53.7 K | 54.34 J/K/mol | –
54.5 K | 55.43 J/K/mol | –
55.3 K | 55.65 J/K/mol | –
56.1 K | 56.39 J/K/mol | –
56.9 K | 57.23 J/K/mol | –
57.7 K | 57.95 J/K/mol | –
58.51 K | 58.68 J/K/mol | –
59.31 K | 59.42 J/K/mol | –
60 K | 60.03 J/K/mol | –
60.12 K | 60.15 J/K/mol | –
60.92 K | 60.88 J/K/mol | –
61.73 K | 61.6 J/K/mol | –
62.52 K | 62.33 J/K/mol | –
63.32 K | 63.58 J/K/mol | –
64.13 K | 64.21 J/K/mol | –
64.93 K | 64.88 J/K/mol | –
65.73 K | 65.32 J/K/mol | –
66.54 K | 65.98 J/K/mol | –
67.34 K | 66.53 J/K/mol | –
68.15 K | 67.1 J/K/mol | –
68.95 K | 67.91 J/K/mol | –
69.75 K | 68.59 J/K/mol | –
70 K | 68.68 J/K/mol | –
70.56 K | 69.1 J/K/mol | –
71.35 K | 69.78 J/K/mol | –
72.16 K | 70.26 J/K/mol | –
72.96 K | 70.81 J/K/mol | –
73.76 K | 71.51 J/K/mol | –
74.56 K | 72.19 J/K/mol and 72.19 J/K/mol | –
75.36 K | 72.76 J/K/mol | –
76.16 K | 73.55 J/K/mol and 73.54 J/K/mol | –
76.96 K | 74.19 J/K/mol | –
77.76 K | 74.88 J/K/mol and 74.88 J/K/mol | –
77.81 K | 74.18 J/K/mol | –
77.91 K | 74.86 J/K/mol | –
77.92 K | 74.32 J/K/mol | –
78.27 K | 74.94 J/K/mol | –
78.42 K | 75.32 J/K/mol | –
78.45 K | 75.01 J/K/mol | –
78.56 K | 75.5 J/K/mol | –
78.82 K | 75.44 J/K/mol | –
78.84 K | 74.99 J/K/mol | –
78.87 K | 75.62 J/K/mol | –
79.2 K | 75.99 J/K/mol | 71.01 J/K/mol
79.22 K | 75.33 J/K/mol | –
79.24 K | 75.75 J/K/mol | –
79.33 K | 76.02 J/K/mol | –
79.36 K | 76.16 J/K/mol | –
79.37 K | 76.15 J/K/mol | –
79.62 K | – | 70.64 J/K/mol
79.64 K | – | 70.29 J/K/mol
79.68 K | – | 70.63 J/K/mol
80 K | – | 71.09 J/K/mol
80.02 K | – | 71.26 J/K/mol
80.04 K | – | 70.54 J/K/mol
80.14 K | – | 70.97 J/K/mol
80.17 K | – | 71.35 J/K/mol and 71.35 J/K/mol
80.19 K | – | 71.22 J/K/mol
80.41 K | – | 71.6 J/K/mol
80.43 K | – | 70.98 J/K/mol
80.48 K | – | 71.27 J/K/mol
80.81 K | – | 72.02 J/K/mol
80.83 K | – | 71.17 J/K/mol
80.94 K | – | 71.85 J/K/mol
80.98 K | – | 72.02 J/K/mol and 72.02 J/K/mol
80.99 K | – | 72 J/K/mol
81.21 K | – | 72.51 J/K/mol
81.23 K | – | 71.92 J/K/mol
81.28 K | – | 72.06 J/K/mol
81.61 K | – | 72.57 J/K/mol
81.63 K | – | 72.55 J/K/mol
81.74 K | – | 72.46 J/K/mol
81.79 K | – | 72.78 J/K/mol and 72.65 J/K/mol and 72.78 J/K/mol
82 K | – | 72.93 J/K/mol
82.02 K | – | 72.8 J/K/mol
82.08 K | – | 72.96 J/K/mol
82.42 K | – | 73.44 J/K/mol
82.55 K | – | 73.18 J/K/mol
82.59 K | – | 73.58 J/K/mol and 73.47 J/K/mol and 73.58 J/K/mol
82.82 K | – | 73.8 J/K/mol
82.88 K | – | 73.57 J/K/mol
83.22 K | – | 74.06 J/K/mol
83.35 K | – | 74 J/K/mol
83.4 K | – | 74.08 J/K/mol
83.68 K | – | 74.24 J/K/mol
84.15 K | – | 74.8 J/K/mol
84.2 K | – | 74.77 J/K/mol
84.49 K | – | 74.98 J/K/mol
84.95 K | – | 75.46 J/K/mol
85 K | – | 75.41 J/K/mol
85.29 K | – | 75.62 J/K/mol
85.8 K | – | 76.16 J/K/mol
86.6 K | – | 77.02 J/K/mol
87.4 K | – | 77.55 J/K/mol
88.21 K | – | 78.21 J/K/mol
89.01 K | – | 78.75 J/K/mol
89.81 K | – | 79.34 J/K/mol
90 K | – | 79.57 J/K/mol
90.61 K | – | 80.12 J/K/mol
91.41 K | – | 80.65 J/K/mol
92.22 K | – | 81.07 J/K/mol
93.02 K | – | 81.81 J/K/mol
93.82 K | – | 82.48 J/K/mol
94.62 K | – | 83.08 J/K/mol
95.43 K | – | 83.56 J/K/mol
96.23 K | – | 84.06 J/K/mol
97.03 K | – | 84.89 J/K/mol
97.83 K | – | 85.56 J/K/mol
98.64 K | – | 86.05 J/K/mol
99.44 K | – | 86.39 J/K/mol
100 K | – | 86.89 J/K/mol
100.24 K | – | 86.97 J/K/mol
101.04 K | – | 87.55 J/K/mol
101.84 K | – | 88.13 J/K/mol
102.65 K | – | 88.72 J/K/mol
103.45 K | – | 89.38 J/K/mol
104.25 K | – | 89.71 J/K/mol
105.05 K | – | 90.38 J/K/mol
105.85 K | – | 91.04 J/K/mol
106.65 K | – | 91.46 J/K/mol
107.45 K | – | 91.87 J/K/mol
108.25 K | – | 92.54 J/K/mol
109.05 K | – | 93.12 J/K/mol
109.85 K | – | 93.62 J/K/mol
110 K | – | 93.7 J/K/mol
110.66 K | – | 94.2 J/K/mol
111.46 K | – | 94.78 J/K/mol
112.26 K | – | 95.2 J/K/mol
113.06 K | – | 95.87 J/K/mol
113.86 K | – | 96.36 J/K/mol
114.66 K | – | 96.61 J/K/mol
115.47 K | – | 97.36 J/K/mol
116.27 K | – | 97.7 J/K/mol
117.07 K | – | 98.61 J/K/mol
117.87 K | – | 99.11 J/K/mol
118.67 K | – | 99.69 J/K/mol
119.47 K | – | 100.27 J/K/mol
120 K | – | 100.44 J/K/mol
120.28 K | – | 100.85 J/K/mol
121.08 K | – | 101.19 J/K/mol
121.88 K | – | 101.85 J/K/mol
122.68 K | – | 102.27 J/K/mol
123.49 K | – | 102.77 J/K/mol
